Experimental data as given in patent publication US11219692B2, “Porphyrin modified telodendrimers” (THE REGENTS OF THE UNIVERSITY OF CALIFORNIA, priority 2012, dated 2022).

Assays:
[1] = system: SKOV-3 ovarian cancer xenograft; experiment: In vivo therapeutic study (PTT/PDT with or without DOX); design: species or system nude mice; conditions: DOX 2.5 mg/kg, NP 25 mg/kg, light 0.25 W cm^−2 for 2 min; versus PBS control
Experimental: Transgenic mice with mammary cancer (FVB/n Tg(MMTV-PyVmT) and nude mice bearing SKOV-3 ovarian cancer xenograft were used for the in vivo therapeutic studies. When tumor volumes reached 4-5 mm in transgenic mice, crosslinked NPs with and without 2.5 mg/kg DOX were injected via tail vein once per week for 3 doses. After 24 hrs, tumors were illuminated with a diode laser system (Applied Optronics, Newport, Conn.) at 690 nm under general anaesthesia. […] Tumor temperatures were recorded with an infrared camera (Flir). Intratumoral ROS production after irradiation was measured using 2′,7′-dichlorofluorescin diacetate (DCF) mixed with 100 μL of tissue lysates derived from tumors treated with NPs and PBS. In some cases, the blood of the mice was drawn and the ROS and heat production in blood after irradiation were measured at predetermined time points. The hemolysis was also followed. Tumor volume was measured twice a week and mice were sacrificed once tumor size reached 1000 mm^3. Tumors were harvested for histopathological evaluation 24 hours post-irradiation. The SKOV-3 ovarian cancer xenograft model was established by injecting one million cells subcutaneously at lower flank area. […] Tumor sizes and body weight were measured twice a week, while mice were monitored daily for potential signs of toxicity. […]

[2] = system: SKOV-3 ovarian cancer cells; experiment: Cytotoxicity under dark conditions; type: cell-based, human; conditions: up to 1.0 mg/mL, 2 hrs exposure plus 22 hrs
Source text: K9TCC-Pu-In and 5637 bladder cancer cell lines and SKOV-3 ovarian cancer cell lines were used to evaluate the photosensitizing function of nano-porphyrins. […] 5-aminolevulinic acid (5-ALA), the traditional photodynamic diagnosis/therapy agent, was used as a control. In another experiments, DOX loaded nanoporphyrins were used to treat the cancer cells followed by light exposure. […]

Row | Molecule | tumor growth [1] | cytotoxicity without light irradiation [2]
1 | COc1cccc2c1C(=O)c1c(O)c3c(c(O)c1C2=O)C[C@@](O)(C(=O)CO)C[C@@H]3O[C@H]1C[C@H](N)[C@H](O)[C@H](C)O1 [free DOX, doxorubicin] | slower tumor growth | 
2 | pyropheophorbide-a [free Por] |  | significant cytoxicity
